In ChEMBL document CHEMBL5107998, “Structure-Activity relationship of 1-(Furan-2ylmethyl)Pyrrolidine-Based Stimulation-2 (ST2) inhibitors for treating graft versus host disease” (Bioorg Med Chem, 2022):
Active and inactive are the calls of the source. The rule behind the calls is not given here.

Key:
[1] = Inhibition of ST2/IL-33 (unknown origin) interaction incubated for 1 hr by AlphaLISA assay; design: species or system Homo sapiens
[2] = Inhibition of ST2/IL-33 (unknown origin) interaction in HEK-Blue IL-33 cells assessed as reduction in NF-kapaB activation by measuring SEAP reporter level incubated for 20 hrs by QUANTI-Blue reagent based assay; assay type: cell-based; settings: Homo sapiens, HEK-Blue IL-33, 20 h
[3] = Reduction in expansion of C57BL/6 mouse tolerogenic CD4-positive […] regulatory T cells at 1 to 10 uM incubated for 7 days in presence of T cell-depleted and irradiated splenocytes from allogeneic C3H.SW mouse by mixed lymphocyte reaction assay relative to control; assay type: functional; design: scale not given: the % may be the effect or the level left; settings: dose 1-10 µM, time 7 day
[4] = Metabolic stability in pooled CD-1 mouse liver microsomes assessed as half life at 1 uM incubated for 60 mins in presence of NADPH by LC-MS/MS analysis; assay type: ADME, Microsome
[5] = Metabolic stability in pooled human liver microsomes assessed as half life at 1 uM incubated for 60 mins in presence of NADPH by LC-MS/MS analysis; assay type: ADME, Microsome
[6] = Half life in CD-1 mouse at 40 mg/kg, ip measured for 7 hrs by LC-MS/MS analysis; assay type: ADME, organism-based; settings: in vivo
[7] = Cytotoxicity against HEK-Blue IL-33 cells assessed as reduction in cell viability at upto 333 uM incubated for 20 hrs by CellTiter 96 aqueous one solution cell proliferation assay; assay type: toxicity, cell-based; settings: human, hek-blue il-33, 20 h
CD4+ve Th = test: Inhibition of cell proliferation in C57BL/6 mouse spleen CD4-positive T cells at 1 to 10 uM incubated for 7 days in presence of T cell-depleted and irradiated splenocytes from allogeneic C3H.SW mouse by mixed lymphocyte reaction assay; assay type: functional, cell-based; settings: dose 1-10 µM, time 7.0 day
CD8-positive T cell = test: Inhibition of cell proliferation in C57BL/6 mouse spleen CD8-positive T cells at 1 to 10 uM incubated for 7 days in presence of T cell-depleted and irradiated splenocytes from allogeneic C3H.SW mouse by mixed lymphocyte reaction assay; assay type: functional, cell-based; settings: dose 1-10 µM, time 7.0 day
T-cell = test: Induction of expansion of C57BL/6 mouse tolerogenic CD4-positive […] regulatory T cells incubated for 7 days in presence of T cell-depleted and irradiated splenocytes from allogeneic C3H.SW mouse by mixed lymphocyte reaction assay; assay type: functional, cell-based; settings: dose 1-10 µM, time 7.0 day, DDE = dose-dependent effect

Row | SMILES | IC50 [1] [µM] | IC50 [2] [µM] | also measured
1 | COc1ccc(-c2ccc(CN3CCC[C@H]3c3ccc(N(C)C)cc3)o2)c([N+](=O)[O-])c1 | 6.6 | 30.6 | 
2 | COc1ccc(-c2ccc(CN3CCC[C@@H]3c3ccc(N(C)C)cc3)o2)c([N+](=O)[O-])c1 | 10.4 | 56.4 | 
3 | COc1ccc(C2CCCN2Cc2ccc(-c3ccccc3C(N)=O)o2)cc1 (centres undefined) | 167 |  | 
4 | O=C(O)c1ccc(C2CCCN2Cc2ccc(-c3ccccc3[N+](=O)[O-])o2)cc1 (centres undefined) | 80.9 |  | Activity [3]: 10%
5 | COc1ccc(C2CCCN2Cc2ccc(-c3ccccc3[N+](=O)[O-])o2)cc1 (centres undefined) | 46.6 | 56.4 | half-life at 1 µM [4]: 0.73 min; half-life at 1 µM [5]: 1.1 min; t1/2 [6]: 85.8 min
6 | CN(C)c1ccc(C2CCCN2Cc2ccc(-c3ccc(Cl)cc3[N+](=O)[O-])o2)cc1 (centres undefined) | 21.2 |  | 
7 | Cc1cc([N+](=O)[O-])ccc1-c1ccc(CN2CCC[C@@H]2c2ccc(N(C)C)cc2)o1 | 8.11 | 53.1 | 
8 | COc1ccc(C2CCCN2Cc2ccc(-c3ccccc3C#N)o2)cc1 (centres undefined) | 116 |  | 
9 | Cc1cc([N+](=O)[O-])ccc1-c1ccc(CN2CCCC2c2cccc(N(C)C)c2)o1 (centres undefined) | 6.12 |  | half-life at 1 µM [4]: 4.2 min; half-life at 1 µM [5]: 4.7 min
10 | O=[N+]([O-])c1ccccc1-c1ccc(CN2CCCC2c2cccc(N3CCCCC3)c2)o1 (centres undefined) | 7.14 |  | 
11 | Cc1ccc(-c2ccc(CN3CCCC3c3ccc(N(C)C)cc3)o2)c([N+](=O)[O-])c1 (centres undefined) | 9.11 | 41.4 | Activity [7]: Non-Toxic
12 | CN(C)c1cccc(C2CCCN2Cc2ccc(-c3ccccc3[N+](=O)[O-])o2)c1 (centres undefined) | 5.46 | 44.7 | half-life at 1 µM [4]: 0.78 min; half-life at 1 µM [5]: 0.57 min
13 | COC(=O)Cc1cccc(C2CCCN2Cc2ccc(-c3ccccc3[N+](=O)[O-])o2)c1 (centres undefined) | 53 |  | 
14 | COc1ccc(C2CCCN2Cc2ccc(-c3ccccc3C(=O)O)o2)cc1 (centres undefined) | 220 |  | 
15 | O=[N+]([O-])c1ccccc1-c1ccc(CN2CCCC2c2ccc3c(c2)OCCO3)o1 (centres undefined) | 29.4 |  | 
16 | Cc1ccc([N+](=O)[O-])c(-c2ccc(CN3CCCC3c3ccc(N(C)C)cc3)o2)c1 (centres undefined) | 8.06 | 39.1 | Activity [7]: Non-Toxic; half-life at 1 µM [4]: 0.89 min

Row | SMILES | IC50 [1] [µM] | IC50 [2] [µM] | also measured
17 | CN(C)Cc1cccc(C2CCCN2Cc2ccc(-c3ccccc3[N+](=O)[O-])o2)c1 (centres undefined) | 54.3 |  | 
18 | Cc1cc([N+](=O)[O-])ccc1-c1ccc(CN2CCCC2c2ccc(N(C)C)cc2)o1 (centres undefined) | 7.73 | 42.5 | half-life at 1 µM [4]: 3.64 min; half-life at 1 µM [5]: 13.7 min; t1/2 [6]: 92.4 min
19 | COc1ccc(C2CCCN2Cc2ccc(-c3ccccc3F)o2)cc1 (centres undefined) | 115 |  | 
20 | COc1ccc(C2CCCN2Cc2ccc(-c3ccc([N+](=O)[O-])cc3)o2)cc1 (centres undefined) | 22.1 |  | 
21 | CN(C)c1ccc(C2CCCN2Cc2ccc(-c3ccccc3[N+](=O)[O-])o2)cc1 (centres undefined) | 19.6 | 33.3 | Activity [7]: Non-Toxic; half-life at 1 µM [4]: 0.95 min; half-life at 1 µM [5]: 2.54 min; t1/2 [6]: 224 min; inhibition (CD4+ve Th): Active; inhibition (CD8-positive T cell): Active; Activity (T-cell): Dde
22 | O=[N+]([O-])c1ccccc1-c1ccc(CN2CCCC2c2ccc(N3CCCCC3)cc2)o1 (centres undefined) | 21.5 | 53.8 | half-life at 1 µM [4]: 1.29 min; half-life at 1 µM [5]: 1.95 min
23 | COc1ccc(-c2ccc(CN3CCCC3c3ccc(N(C)C)cc3)o2)c([N+](=O)[O-])c1 (centres undefined) | 12.3 | 48.5 | Activity [7]: Non-Toxic
24 | COc1cccc(C2CCCN2Cc2ccc(-c3ccccc3[N+](=O)[O-])o2)c1 (centres undefined) | 26.7 |  | 
25 | O=[N+]([O-])c1ccccc1-c1ccc(CN2CCCC2c2ccccc2)o1 (centres undefined) | 97.6 |  | 
26 | O=[N+]([O-])c1ccccc1-c1ccc(CN2CCCC2c2cccc(N3CCCC3)c2)o1 (centres undefined) | 6.42 | 85.3 | half-life at 1 µM [4]: 5.61 min; half-life at 1 µM [5]: 2.27 min
27 | COc1ccccc1C1CCCN1Cc1ccc(-c2ccccc2[N+](=O)[O-])o1 (centres undefined) | 23.4 |  | 
28 | Cc1cc([N+](=O)[O-])ccc1-c1ccc(CN2CCC[C@H]2c2ccc(N(C)C)cc2)o1 | 6.31 | 42.5 | 
29 | COC(=O)c1ccc(C2CCCN2Cc2ccc(-c3ccccc3[N+](=O)[O-])o2)cc1 (centres undefined) | 20.6 |  | 
30 | COc1ccc(C2CCCN2Cc2ccc(-c3cccc([N+](=O)[O-])c3)o2)cc1 (centres undefined) | 35.4 |  | 
31 | O=[N+]([O-])c1ccccc1-c1ccc(CN2CCCC2c2ccc(N3CCCC3)cc2)o1 (centres undefined) | 12.9 | 62 | Activity [7]: Non-Toxic; half-life at 1 µM [4]: 2.67 min; half-life at 1 µM [5]: 10.1 min
